US20250084074A1, “SUBSTITUTED HETEROCYCLES AS HSET INHIBITORS” (MERCK PATENT GMBH, priority 2022, published 2025)
Where a name gives a salt, the structure may show the parent alone.

biological target: HSET full length protein (Homo sapiens (Human), UniProt Q9BW19); experiment: HSET ADP-Glo Assay S - 3 μM ATP; type: biochemical; settings: 5 nM HSET, 70 μg/mL microtubule, 80 min at rt, read-out: COMBINED HSET ADP GLO IC50
Description: Example 281: Testing compounds of the present invention for inhibitory activities against HSET—HSET ADP-Glo Assay S—3 μM ATP
Reagents: (+4° C. Storage) • Paclitaxel Prod.No.TXD.01 2 mM in DMSO (from Universal Biologicals Cambridge). • Tubulin Protein (Pre-formed Microtubules): Bovine Brain Prod.No.MT001-XL Lot.025 10 mg/mL (from Universal Biologicals Cambridge).
Reagents: (−80° C. Storage) • MT001-XL—Tubulin Protein (Pre-formed Microtubules): Bovine Brain—reconstituted in buffer—15 mM PIPES pH7, 1 mM MgCl2, 20 μM paclitaxel (aliquots at 10 mg/mL) from Universal Biologicals Cambridge. • HSET full length protein—Current batch is FL HSET Prep1 (SEQ-000096_002-01_01) • Buffer is 20 mM Hepes pH 7.5, 200 mM NaCl, 2 mM TCEP, 5% glycerol (5 μL aliquots at 10.2 μM)
Reagents: (−20° C. Storage) • ADP-Glo Kinase Assay kit (Promega Prod.No.V9102) 10,000 assay points • ADP-Glo reagent (50 mL), Kinase Detection Reagent (100 mL), and Ultrapure ATP (10 mM) aliquoted
Buffer Stocks (filtered and stored at rt for up to 1 month) • HEPES acid, 4-(2-Hydroxyethyl)piperazine-1-ethanesulfonic acid MW:238, 238.3 mg/mL=1 M • 7149 mg/30 mL=1M (pH to 6.8 with 5 M NaOH) • PIPES, 1,4-Piperazinediethanesulfonic acid MW: 302.4, 30.24 mg/mL=100 mM; 907.2 mg/30 mL=100 mM (pH to 7 with 5 M NaOH, white cloudy suspension until the pH changes) • EGTA, Ethylene glycol-bis(2-aminoethylether)-N,N,N′,N′-tetraacetic acid MW: 380.35, 38.035 mg/mL=100 mM • 1901.75 mg/50 mL=100 mM (pH to ˜7 with 5 M NaOH)—takes a long time to get into solution and for pH to stabilize • Triton-X-100, MW: 625, 62.5 mg/mL=100 mM (6.25% w/v) (viscous, pipette Triton X-100 with a Gilson using a trimmed pipette tip)
ECHO Protocol • Create an ECHO intermediate plate by adding 24.5 μL DMSO to columns 1 & 2, and 40 μL DMSO to columns 23 & 24 of an ECHO 384PP plate • Add 100 nL of compound/DMSO per well in 384-well Proxi-Plate Plus (white) —Perkin Elmer Cat #6008289 using ECHO dose response protocol 100 nL normal to proxi_8pt_200 uM.
Assay buffer (Keep on ice): HEPES pH 6.8, MgCl2, EGTA, Triton X-100, DTT, HPLC H2O Microtubule Working Solution (3.2): • 1 ml PM buffer: PIPES pH 7.0, MgCl2, HPLC H2O, Paclitaxel, mix well, store at rt • Then add 26.4 μL of 10 mg/ml microtubules to 724 μL of the above PM buffer to make 750 μL of microtubule working solution @350 μg/mL microtubules (store at rt)
Stock HSET enzyme solution (3.1)—keep on ice • Add 1.33 μL 10.2 μM HSET Prepi (SEQ-000096_002-01_01) to 1358 μL assay buffer to make a 10 nM stock for a 5 nM final assay concentration (1/1020 dilution).
HSET/Microtubule working solution (3.3) • Mix solutions 3.1 and 3.2 in the ratio of 2.5:1 (1214.3 μL 3.1+485.7 μL 3.2) keep at rt for 15 min • 3.2 is diluted 3.5-fold, 3.1 is diluted 1.4-fold BLANK solution is 357 μL 2XAB+143 μL microtubule working solution 3.2. (Same proportions as HSET/Microtubule working solution (3.3))
ATP Working solution is 1 μL 10 mM UltraPure ATP (Promega kit)+999 μL ddH20 gives 10 μM ATP for a 3 μM final assay concentration, stored on ice.
Assay procedure in PROXIPLATE 384 PLUS WHITE (Perkin Elmer) plates (Remove 2.4 mL ADP Glo and 4.5 mL Kinase detection reagent from freezer to warm up to rt) • Add 3.5 μL BLANK solution to assay plate (column 12) • Add 3.5 μL HSET/Microtubule solution (3.3) (columns 1-11 & 13-24) • Centrifuge at 1000 rpm for 1 min • (pre-incubate enzyme and compound for 10 min)
Add 1.5 μL of 10 μM ATP to start reaction gives a final [HSET] of 5 nM, [ATP] of 3 μM and [microtubule] of 70 μg/mL, centrifuge at 1000 rpm for 1 min and incubated at rt for 80 min.
After the 80-minute incubation, stop reaction by adding 5 μL ADP-Glo reagent to all wells. Centrifuge for 1 min at 1000 rpm, leave for 40 min at rt.
In the dark/away from direct light, add 10 μL Kinase Detection Reagent (KDR) to all wells, Seal plate with a Topseal (Perkin Elmer Cat #6050185) and centrifuge as above, leave for 40 min at rt covered in foil. […]

HSET full length protein, sequence (Q9BW19 whole entry): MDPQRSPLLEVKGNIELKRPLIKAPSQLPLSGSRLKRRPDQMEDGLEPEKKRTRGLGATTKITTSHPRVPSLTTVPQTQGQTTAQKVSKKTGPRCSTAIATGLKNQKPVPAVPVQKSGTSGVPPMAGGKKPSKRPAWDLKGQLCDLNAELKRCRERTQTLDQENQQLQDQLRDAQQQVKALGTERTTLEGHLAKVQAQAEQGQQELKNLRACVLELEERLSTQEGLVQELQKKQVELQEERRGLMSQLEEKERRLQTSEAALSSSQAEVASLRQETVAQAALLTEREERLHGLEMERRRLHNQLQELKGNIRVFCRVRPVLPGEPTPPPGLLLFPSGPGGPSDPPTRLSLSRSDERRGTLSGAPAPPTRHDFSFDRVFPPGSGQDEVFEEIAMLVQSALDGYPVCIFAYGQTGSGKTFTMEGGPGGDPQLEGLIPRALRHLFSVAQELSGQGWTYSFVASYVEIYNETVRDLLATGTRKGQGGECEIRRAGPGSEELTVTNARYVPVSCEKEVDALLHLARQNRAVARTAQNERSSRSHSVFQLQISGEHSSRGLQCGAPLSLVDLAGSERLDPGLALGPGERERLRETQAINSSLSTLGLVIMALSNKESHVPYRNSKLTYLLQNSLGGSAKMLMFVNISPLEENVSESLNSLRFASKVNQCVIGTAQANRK

**Q.** How did the IC50 turn out when `COC(=O)c1sc(NC(=O)CCNc2nccc3ccc(-c4noc(C)n4)cc23)nc1C` [Example 46, Methyl 4-methyl-2-[3-[[7-(5-methyl-1,2,4-oxadiazol-3-yl)-1-isoquinolyl]amino]propanoylamino]thiazole-5-carboxylate] was run?
**A.** 37 nM

**Q.** With `Cc1nc(-c2ccc3ncnc(NCCC(=O)Nc4nc(C)c(C(C)(C)C)s4)c3c2)no1` [Example 47, N-(5-tert-butyl-4-methyl-thiazol-2-yl)-3-[[6-(5-methyl-1,2,4-oxadiazol-3-yl)quinazolin-4-yl]amino]propanamide formate] as the compound, how does the IC50 read?
**A.** 147 nM

**Q.** Which IC50 does the source give for `Cc1nc(-c2ccc3ncnc(N[C@H]4C[C@@H](C(=O)Nc5nc(C)c(C(=O)OC(C)(C)C)s5)C4)c3c2)no1` [Example 48, tert-Butyl 4-methyl-2-((1 s,3s)-3-((6-(5-methyl-1,2,4-oxadiazol-3-yl)quinazolin-4-yl)amino)cyclobutane-1-carboxamido)thiazole-5-carboxylate] here?
**A.** 68 nM

**Q.** With `Cc1nc(-c2ccc3ncnc(N[C@H]4C[C@@H](C(=O)N(C)c5nc(C)c(C(=O)OC(C)(C)C)s5)C4)c3c2)no1` [Example 49, tert-Butyl 4-methyl-2-((1 s,3s)-N-methyl-3-((6-(5-methyl-1,2,4-oxadiazol-3-yl)quinazolin-4-yl)amino)cyclobutane-1-carboxamido)thiazole-5-carboxylate formate] as the compound, how does the IC50 read?
**A.** 59 nM

**Q.** Which IC50 does the source give for `Cc1nc(-c2ccc3ccnc(NCCC(=O)Nc4nc(C)c(C5(C(F)(F)F)CC5)s4)c3c2)no1` [Example 52] here?
**A.** 152 nM

**Q.** With `CCCOC(=O)c1sc(NC(=O)CCNc2nccc3ccc(-c4noc(C)n4)cc23)nc1C` [Example 54, Propyl 4-methyl-2-(3-((7-(5-methyl-1,2,4-oxadiazol-3-yl)isoquinolin-1-yl)amino)propanamido)thiazole-5-carboxylate] as the compound, how does the IC50 read?
**A.** 3 nM

**Q.** `Cc1nc(-c2ccc3ccnc(NCCC(=O)Nc4ncc(C#N)s4)c3c2)no1` [Example 55] was tested. Which IC50 did it give?
**A.** 1130 nM

**Q.** For `Cc1nc(-c2ccc3ccnc(NCCC(=O)Nc4cc(C(F)(F)F)n(C)n4)c3c2)no1` [Example 56, 3-((7-(5-methyl-1,2,4-oxadiazol-3-yl)isoquinolin-1-yl)amino)-N-(1-methyl-5-(trifluoromethyl)-1 H-pyrazol-3-yl)propenamide], which IC50 is on record?
**A.** 1260 nM

**Q.** Which IC50 does the source give for `CCCCCc1cc(NC(=O)CCNc2nccc3ccc(-c4noc(C)n4)cc23)nn1C` [Example 57, 3-((7-(5-methyl-1,2,4-oxadiazol-3-yl)isoquinolin-1-yl)amino)-N-(1-methyl-5-pentyl-1 H-pyrazol-3-yl)propanamide] here?
**A.** 166 nM

**Q.** For `Cc1nnn(-c2cccc(C(=O)NCCC(=O)Nc3nc(C)c(C(C)(C)C)s3)c2)n1` [Example 59, N-(3-((5-(tert-butyl)-4-methylthiazol-2-yl)amino)-3-oxopropyl)-3-(5-methyl-2H-tetrazol-2-yl)benzamide], which IC50 is on record?
**A.** 278 nM

**Q.** `CNCCC[C@@H](CC(=O)Nc1nc(C)c(C(C)(C)C)s1)NC(=O)c1cccc(-n2nnc(C)n2)c1` [Example 60, (S)-N-(1-((5-(tert-butyl)-4-methylthiazol-2-yl)amino)-6-(methylamino)-1-oxohexan-3-yl)-3-(5-methyl-2H-tetrazol-2-yl)benzamide] was tested. Which IC50 did it give?
**A.** 54 nM

**Q.** With `CCOC(=O)c1cnc(NC(=O)CCNC(=O)c2cccc(-c3noc(C)n3)c2)s1` [Example 61, Ethyl 2-(3-(3-(5-methyl-1,2,4-oxadiazol-3-yl)benzamido)propanamido)-thiazole-5-carboxylate] as the compound, how does the IC50 read?
**A.** 819 nM

**Q.** `COC(=O)c1sc(NC(=O)CCNC(=O)c2cccc(-c3noc(C)n3)c2)nc1C` [Example 62, Methyl 4-methyl-2-(3-(3-(5-methyl-1,2,4-oxadiazol-3-yl)benzamido)propanamido)thiazole-5-carboxylate] was tested. Which IC50 did it give?
**A.** 1210 nM

**Q.** Which IC50 does the source give for `CCCOC(=O)c1sc(NC(=O)CCNC(=O)c2cccc(-c3noc(C)n3)c2)nc1C` [Example 63, Propyl 4-methyl-2-(3-(3-(5-methyl-1,2,4-oxadiazol-3-yl)benzamido)propanamido)thiazole-5-carboxylate] here?
**A.** 11 nM

**Q.** For `CCCCc1sc(NC(=O)CCNC(=O)c2cccc(-c3noc(C)n3)c2)nc1C` [Example 64, N-(3-((5-butyl-4-methylthiazol-2-yl)amino)-3-oxopropyl)-3-(5-methyl-1,2,4-oxadiazol-3-yl)benzamide], which IC50 is on record?
**A.** 348 nM

**Q.** How did the IC50 turn out when `CCOC(=O)c1sc(NC(=O)CC(C)(C)NC(=O)c2cccc(-c3noc(C)n3)c2)nc1C` [Example 65, Ethyl 4-methyl-2-(3-methyl-3-(3-(5-methyl-1,2,4-oxadiazol-3-yl)benzamido)butanamido)thiazole-5-carboxylate] was run?
**A.** 4100 nM

**Q.** How did the IC50 turn out when `Cc1nc(-c2cccc(C(=O)NCCC(=O)Nc3nc(C)c(C(=O)OC(C)C)s3)c2)no1` [Example 66, Isopropyl 4-methyl-2-(3-(3-(5-methyl-1,2,4-oxadiazol-3-yl)benzamido)propanamido)thiazole-5-carboxylate] was run?
**A.** 40 nM

**Q.** For `COCCOC(=O)c1sc(NC(=O)CCNC(=O)c2cccc(-c3noc(C)n3)c2)nc1C` [Example 67, 2-Methoxyethyl 4-methyl-2-(3-(3-(5-methyl-1,2,4-oxadiazol-3-yl)benzamido)propanamido)thiazole-5-carboxylate], which IC50 is on record?
**A.** 419 nM

**Q.** Which IC50 does the source give for `Cc1nc(-c2cccc(C(=O)NCCC(=O)Nc3nc(C)c(C(=O)OCC(C)C)s3)c2)no1` [Example 68, Isobutyl 4-methyl-2-(3-(3-(5-methyl-1,2,4-oxadiazol-3-yl)benzamido)propanamido)thiazole-5-carboxylate] here?
**A.** 33 nM

**Q.** How did the IC50 turn out when `COCCCCOC(=O)c1sc(NC(=O)CCNC(=O)c2cccc(-c3noc(C)n3)c2)nc1C` [Example 69, 4-Methoxybutyl 4-methyl-2-(3-(3-(5-methyl-1,2,4-oxadiazol-3-yl)benzamido)propanamido)thiazole-5-carboxylate] was run?
**A.** 50 nM

**Q.** Which IC50 does the source give for `CCCOC(=O)c1sc(C(=O)NCCNc2nccc3ccc(-c4noc(C)n4)cc23)nc1C` [Example 70, Propyl 4-methyl-2-((2-((7-(5-methyl-1,2,4-oxadiazol-3-yl)isoquinolin-1-yl)amino)ethyl)carbamoyl)thiazole-5-carboxylate] here?
**A.** 11 nM

**Q.** With `CCOC(=O)c1cc(C(=O)NCCNc2nccc3ccc(-c4noc(C)n4)cc23)nn1C` [Example 71, Ethyl 1-methyl-3-((2-((7-(5-methyl-1,2,4-oxadiazol-3-yl)isoquinolin-1-yl)amino)ethyl)carbamoyl)-1 H-pyrazole-5-carboxylate] as the compound, how does the IC50 read?
**A.** 10900 nM

**Q.** For `CCCOC(=O)c1cc(C(=O)NCCNc2nccc3ccc(-c4noc(C)n4)cc23)nn1C` [Example 72, Propyl 1-methyl-3-((2-((7-(5-methyl-1,2,4-oxadiazol-3-yl)isoquinolin-1-yl)amino)ethyl)carbamoyl)-1 H-pyrazole-5-carboxylate], which IC50 is on record?
**A.** 4310 nM
